From patent US9216968B2, “Heterocyclic derivative and pharmaceutical drug” (NIPPON SHINYAKU CO., LTD., priority 2011, dated 2015)
pIC50: −log10 of the molar value. Where a name gives a salt, the structure may show the parent alone.

What was measured:
A549 cells = experiment: Inhibition of PGE2 production in A549 cell (IL-1β stimulated); format: cell-based, human; conditions: Homo sapiens, A549, 24 h, IL-1β 5 ng/well, PGE2 in culture medium
In short: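 After IL-1β (5 ng/well) stimulation for 24 h at 37 °C, following a 60-min compound pretreatment in RPMI with 3% FBS, medium PGE2 (HTRF) and PGF2α (EIA) from human A549 cells were quantified. 100% activity set as IL-1β-induced minus basal production; IC50 calculated.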

human mPGES-1 = human mPGES-1 (Homo sapiens (Human), UniProt O14684); experiment: mPGES-1 inhibiting activity (microsome fractions, PGE2 by HTRF); format: biochemical; conditions: microsomes from CHO-K1 cells transfected with human mPGES-1; PGH2 1 μM, 4° C., 60 seconds; read-out: mPGES-1 Inhibition IC50
Chain of human mPGES-1 (O14684 whole entry): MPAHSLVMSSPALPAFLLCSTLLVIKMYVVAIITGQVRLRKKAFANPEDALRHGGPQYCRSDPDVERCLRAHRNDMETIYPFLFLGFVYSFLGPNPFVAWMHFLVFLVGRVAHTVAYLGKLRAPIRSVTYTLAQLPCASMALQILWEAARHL
In short: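 PGE2 formation read by HTRF after 60 s at 4 °C with 1 μM PGH2 substrate, following 20 min compound preincubation (1% DMSO) with human mPGES-1 microsomes from transfected CHO-K1 cells. Buffer: potassium phosphate, reduced glutathione, pH 7.4; IC50 from activity relative to enzyme-free blank.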

Row | Compound | pIC50 (A549 cells) | pIC50 (human mPGES-1)
1 | COCc1nc2c(C(=O)Nc3cccc(Cl)c3CO)cc(NC(=O)c3ccccc3C(F)(F)F)cc2[nH]1 [Example 234, N-[3-Chloro-2-(hydroxymethyl)phenyl]-2-(methoxymethyl)-6-({[2-(trifluoromethyl)phenyl]carbonyl}amino)-1H-benzimidazole-4-carboxamide] | 6.70 | 7.01
2 | COCc1nc2c(C(=O)Nc3nc4ccccc4o3)cc(NC(=O)c3ccccc3C(F)(F)F)cc2[nH]1 [Example 232, N-(1,3-Benzoxazol-2-yl)-2-(methoxymethyl)-6-({[2-(trifluoromethyl)phenyl]carbonyl}amino)-1H-benzimidazole-4-carboxamide hydrochloride] | 6.90 | 8.11
3 | Cc1c(Cl)cccc1NC(=O)c1cc(NC(=O)c2ccccc2C(F)(F)F)cc2[nH]c(CC(C)(C)C)nc12 [Example 82, N-(3-Chloro-2-methylphenyl)-2-(2,2-dimethylpropyl)-6-({[2-(trifluoromethyl)phenyl]carbonyl}amino)-1H-benzimidazole-4-carboxamide hydrochloride] | 8.20 | 9.40
4 | COCc1nc2c(C(=O)Nc3cccc(Cl)c3C)cc(NC(=O)c3cccnc3Cl)cc2[nH]1 [Example 96, N-(3-Chloro-2-methylphenyl)-6-{[(2-chloropyridin-3-yl)carbonyl]amino}-2-(methoxymethyl)-1H-benzimidazole-4-carboxamide hydrochloride] | 6.90 | 7.47
5 | Cc1c(Cl)cccc1NC(=O)c1cc(NC(=O)c2c(F)cccc2Cl)cc2[nH]c(NCCOC(C)(C)C)nc12 [Example 195, 2-[(2-tert-Butoxyethyl)amino]-6-{[(2-chloro-6-fluorophenyl)carbonyl]amino}-N-(3-chloro-2-methylphenyl)-1H-benzimidazole-4-carboxamide hydrochloride] | 7.76 | 8.64
6 | NC(=O)Cc1nc2c(C(=O)NCc3ccccc3C(F)(F)F)cc(NC(=O)c3ccccc3C(F)(F)F)cc2[nH]1 [Example 45, 2-(2-Amino-2-oxoethyl)-N-[2-(trifluoromethyl)benzyl]-6-({[2-(trifluoromethyl)phenyl]carbonyl}amino)-1H-benzimidazole-4-carboxamide hydrochloride] | 5.68 | 8.31
7 | COCc1nc2c(C(=O)Nc3ccc(C)cc3)cc(NC(=O)c3ccccc3C(F)(F)F)cc2[nH]1 [Example 23, 2-(Methoxymethyl)-N-(4-methylphenyl)-6-({[2-(trifluoromethyl)phenyl]carbonyl}amino)-1H-benzimidazole-4-carboxamide hydrochloride] | 6.94 | 8.14
8 | Cc1ccc(NC(=O)c2cc(NC(=O)c3cc(Cl)ccc3Cl)cc3[nH]c(N(C)C)nc23)cc1Cl [Example 207, N-(3-Chloro-4-methylphenyl)-6-{[(2,5-dichlorophenyl)carbonyl]amino}-2-(dimethylamino)-1H-benzimidazole-4-carboxamide hydrochloride] | 8.21 | 8.44
9 | COCc1nc2c(C(=O)Nc3ccccc3OC)cc(NC(=O)c3ccccc3C(F)(F)F)cc2[nH]1 [Example 36, 2-(Methoxymethyl)-N-(2-methoxyphenyl)-6-({[2-(trifluoromethyl)phenyl]carbonyl}amino)-1H-benzimidazole-4-carboxamide] | 6.63 | 6.83
10 | COCC(C)(C)CN(C)c1nc2c(C(=O)Nc3cccc(Cl)c3C)cc(NC(=O)c3ccccc3C(F)(F)F)cc2[nH]1 [Example 173, N-(3-Chloro-2-methylphenyl)-2-[(3-methoxy-2,2-dimethylpropyl)(methyl)amino]-6-({[2-(trifluoromethyl)phenyl]carbonyl}amino)-1H-benzimidazole-4-carboxamide hydrochloride] | 7.22 | 8.96
